Here are results for nine compounds from patent US10196403B2, “Compounds and compositions and uses thereof” (Sunovion Pharmaceuticals Inc., priority 2016, dated 2019).

This assay has as its system mice. Nature of the assay: Neuropharmacological Assay (SmartCube). The format is in vivo. To be noted: for minimal effective dose: Mus musculus, read-out: POTENCY (minimal effective dose, MED); for AD: ADHD (SmartCube probability) / AG: analgesic (SmartCube probability) / AX: anxiolytic (SmartCube probability) / CE: cognitive enhancer (SmartCube probability) / DP: anti-depressant (SmartCube probability) / MS: mood stabilizer (SmartCube probability) / PS: anti-psychotic (SmartCube probability) / SD: sedative hypnotic (SmartCube probability) / UN: uncharacterized CNS activity (SmartCube probability): mice, i.p. 15 min before test, most efficacious dose(s) of 3 doses. An excerpt:
Neuropharmacological Assay (SmartCube™)
Neurosci. 2011 Sep. 9; 5:103 (doi: 10.3389/fnins.2011.00103) (“Roberds”). As reported in Roberds, because psychiatric diseases generally result from disorders of cell-cell communication, circuitry, intact systems are useful in detecting improvement in disease-relevant endpoints. These endpoints are typically behavioral in nature, often requiring human observation and interpretation. To facilitate testing of multiple compounds for behavioral effects relevant to psychiatric disease, PsychoGenics, Inc. (Tarrytown, N.Y., “PGI”) developed SmartCube™, an automated system in which behaviors of compound-treated mice are captured by digital video and analyzed with computer algorithms. (D. Brunner et al., Drug Discov. Today 2002, 7:S107-S112). PGI Analytical Systems uses data from SmartCube™ to compare the behavioral signature of a test compound to a database of behavioral signatures obtained using a large set of diverse reference compounds. (The composition of the database as well as validation of the method is further described in Roberds). In this way, the neuropharmacological effects of a test compound can be predicted by similarity to major classes of compounds, such as antipsychotics, anxiolytics and antidepressants.
The SmartCube™ system produces an activity signature indicating the probability that the activity of the test compound at the administered dose matches a given class of neuropharmacological agents. (See, e.g., Roberds, FIGS. 2 and 3). The test compound is simultaneously compared against multiple classes of agents; thus, a separate probability is generated for each behavioral effect measured (e.g., anxiolytic activity, analgesic activity, etc.). In the table below, these probabilities are reported for each behavioral effect measured as follows:
where LOQ is the limit of quantification.
Provided compounds were dissolved in a mixture of Pharmasolve™ (N-methyl-2-pyrrolidone), polyethylene glycol and propylene glycol, and were injected i.p. 15 min. before the behavioral test. For each compound, injections were administered at 3 different doses. For each behavioral effect measured, results for the most efficacious dose(s) are presented. In the table below, DP: anti-depressant; AX: anxiolytic; SD: sedative hypnotic; PS: anti-psychotic; MS: mood stabilizer; AD: ADHD; CE: cognitive enhancer; AG: analgesic; UN: uncharacterized CNS activity.
The potency of many of the compounds in the table was also determined in the SmartCube™ system. Test compounds were routinely examined at dose levels of 0.3, 1, 3 10 and 30 mg per kg (mpk), although the dose range was increased or decreased if necessary to obtain a full dose response curve. A compound's minimal effective dose (MED) is a measure of the compounds potency. The MED was defined as the dose (in mpk) having 50% or more total activity in SmartCube.

[1] abbreviates: MED = dose having 50% or more total activity in SmartCube.

Each structure is given as a SMILES string. Where only a bound is given, the exact number is not on record here.

What is called minimal effective dose is the lowest level tested that produced the effect sought. On to `CNC[C@H]1OCCc2ccc3c(c21)OCCO3` [Example 9, (S)-N-methyl-1-(2,3,7,10-tetrahydro-8H-[1,4]dioxino[2,3-h]isochromen-10-yl)methanamine], for which the “AD: ADHD (SmartCube probability)” value is recorded as “+ (LOQ≤ + <5%)”, the “AG: analgesic (SmartCube probability)” value is recorded as “++ (5%≤ ++ <25%)”, the “AX: anxiolytic (SmartCube probability)” value is given as “++ (5%≤ ++ <25%)” and the “CE: cognitive enhancer (SmartCube probability)” value (“CE: cognitive enhancer” for short) was “+ (LOQ≤ + <5%)”. In addition, the “DP: anti-depressant (SmartCube probability)” value (“DP: anti-depressant” for short) is listed as “+++ (25%≤ +++ <50%)”, the “MS: mood stabilizer (SmartCube probability)” value (from here on “MS: mood stabilizer”) is reported as “++ (5%≤ ++ <25%)”, the “PS: anti-psychotic (SmartCube probability)” value (from here on “PS: anti-psychotic”) is “++ (5%≤ ++ <25%)” and the “SD: sedative hypnotic (SmartCube probability)” value (“SD: sedative hypnotic” for short) was “++ (5%≤ ++ <25%)”. Besides, the “UN: uncharacterized CNS activity (SmartCube probability)” value (“UN: uncharacterized CNS activity” below) is reported as “+++ (25%≤ +++ <50%)”. In addition, the minimal effective dose under setting [1] was 3 to 10 mg/kg.

`CNC[C@H]1OCCc2cc3c(cc21)OCO3` (stereo in doubt) [Example 5, (S)-1-(7,8-dihydro-5H-[1,3]dioxolo[4,5-g]isochromen-5-yl)-N-methylmethanamine]: the “AD: ADHD (SmartCube probability)” value is given as “+ (LOQ≤ + <5%)”, the “AG: analgesic (SmartCube probability)” value is listed as “++ (5%≤ ++ <25%)”, the “AX: anxiolytic (SmartCube probability)” value is “++ (5%≤ ++ <25%)” and the “CE: cognitive enhancer” value is reported as “+ (LOQ≤ + <5%)”. Moreover, the “DP: anti-depressant” value is “+ (LOQ≤ + <5%)”, the “MS: mood stabilizer” value is recorded as “+ (LOQ≤ + <5%)”, the “PS: anti-psychotic” value was “+ (LOQ≤ + <5%)” and the “SD: sedative hypnotic” value is on record as “+ (LOQ≤ + <5%)”. Besides, the “UN: uncharacterized CNS activity” value was “+ (LOQ≤ + <5%)”. Moreover, the minimal effective dose under setting [1] is more than 30 mg/kg.

On to `Cc1cccc2c1CCO[C@H]2CN` [Example 73, (R)-(5-methylisochroman-1-yl)methanamine], for which the “AD: ADHD (SmartCube probability)” value is listed as “+ (LOQ≤ + <5%)”, the “AG: analgesic (SmartCube probability)” value is “+ (LOQ≤ + <5%)”, the “AX: anxiolytic (SmartCube probability)” value is “++ (5%≤ ++ <25%)” and the “CE: cognitive enhancer” value is “++ (5%≤ ++ <25%)”. Besides, the “DP: anti-depressant” value was “+++ (25%≤ +++ <50%)”, the “MS: mood stabilizer” value is given as “+ (LOQ≤ + <5%)”, the “PS: anti-psychotic” value is on record as “+ (LOQ≤ + <5%)” and the “SD: sedative hypnotic” value is given as “++ (5%≤ ++ <25%)”. Besides, the “UN: uncharacterized CNS activity” value is on record as “++++ (50%≤ ++++)”. Also, the minimal effective dose under setting [1] is less than 3 mg/kg.

For the compound `CNC[C@H]1OCCc2cc(Cl)ccc21` [Example 80, (S)-1-(6-chloroisochroman-1-yl)-N-methylmethanamine], the “AD: ADHD (SmartCube probability)” value is “+ (LOQ≤ + <5%)”, the “AG: analgesic (SmartCube probability)” value is listed as “+ (LOQ≤ + <5%)”, the “AX: anxiolytic (SmartCube probability)” value is on record as “++ (5%≤ ++ <25%)” and the “CE: cognitive enhancer” value is recorded as “++ (5%≤ ++ <25%)”. The “DP: anti-depressant” value was “++ (5%≤ ++ <25%)”, the “MS: mood stabilizer” value was “+ (LOQ≤ + <5%)”, the “PS: anti-psychotic” value is “+++ (25%≤ +++ <50%)” and the “SD: sedative hypnotic” value was “+ (LOQ≤ + <5%)”. In addition, the “UN: uncharacterized CNS activity” value is reported as “+ (LOQ≤ + <5%)”. Further, under setting [1], the minimal effective dose fell in the range of 10 to 30 mg/kg.

`CNC[C@@H]1OCCc2c1ccc1c2OCO1` [Example 4, (R)-1-(8,9-dihydro-6H-[1,3]dioxolo[4,5-f]isochromen-6-yl)-N-methylmethanamine]: the “AD: ADHD (SmartCube probability)” value is on record as “+ (LOQ≤ + <5%)”, the “AG: analgesic (SmartCube probability)” value was “++ (5%≤ ++ <25%)”, the “AX: anxiolytic (SmartCube probability)” value is given as “+ (LOQ≤ + <5%)” and the “CE: cognitive enhancer” value is “+ (LOQ≤ + <5%)”. The “DP: anti-depressant” value was “++++ (50%≤ ++++)”, the “MS: mood stabilizer” value is “+ (LOQ≤ + <5%)”, the “PS: anti-psychotic” value is recorded as “+ (LOQ≤ + <5%)” and the “SD: sedative hypnotic” value is given as “+ (LOQ≤ + <5%)”. Also, the “UN: uncharacterized CNS activity” value is reported as “+ (LOQ≤ + <5%)”. Also, under setting [1], the minimal effective dose fell in the range of 3 to 10 mg/kg.

Take `CNC[C@@H]1OCCc2ccc3c(c21)OCCO3` [Example 10, (R)-N-methyl-1-(2,3,7,10-tetrahydro-8H-[1,4]dioxino[2,3-h]isochromen-10-yl)methanamine]: the “AD: ADHD (SmartCube probability)” value was “+ (LOQ≤ + <5%)”, the “AG: analgesic (SmartCube probability)” value is listed as “+ (LOQ≤ + <5%)”, the “AX: anxiolytic (SmartCube probability)” value is on record as “++ (5%≤ ++ <25%)” and the “CE: cognitive enhancer” value is recorded as “++ (5%≤ ++ <25%)”. Also, the “DP: anti-depressant” value was “++ (5%≤ ++ <25%)”, the “MS: mood stabilizer” value is on record as “+ (LOQ≤ + <5%)”, the “PS: anti-psychotic” value is “++ (5%≤ ++ <25%)” and the “SD: sedative hypnotic” value is listed as “+ (LOQ≤ + <5%)”. Further, the “UN: uncharacterized CNS activity” value was “+++ (25%≤ +++ <50%)”. The minimal effective dose under setting [1] is 10 to 30 mg/kg.

For the compound `CNC[C@@H]1OCCc2cc3c(cc21)OCO3` (stereo in doubt) [Example 6, (R)-1-(7,8-dihydro-5H-[1,3]dioxolo[4,5-g]isochromen-5-yl)-N-methylmethanamine], the “AD: ADHD (SmartCube probability)” value was “+ (LOQ≤ + <5%)”, the “AG: analgesic (SmartCube probability)” value is “+ (LOQ≤ + <5%)”, the “AX: anxiolytic (SmartCube probability)” value was “++ (5%≤ ++ <25%)” and the “CE: cognitive enhancer” value is listed as “+ (LOQ≤ + <5%)”. Moreover, the “DP: anti-depressant” value was “+ (LOQ≤ + <5%)”, the “MS: mood stabilizer” value was “++ (5%≤ ++ <25%)”, the “PS: anti-psychotic” value is reported as “++ (5%≤ ++ <25%)” and the “SD: sedative hypnotic” value is on record as “+ (LOQ≤ + <5%)”. The “UN: uncharacterized CNS activity” value is listed as “++++ (50%≤ ++++)”. Moreover, under setting [1], the minimal effective dose was 10 to 30 mg/kg.

On to `CNC(C)C1OCCc2ccc3c(c21)OCO3` (stereo not drawn) [Example 57], for which the “AD: ADHD (SmartCube probability)” value is “+ (LOQ≤ + <5%)”, the “AG: analgesic (SmartCube probability)” value was “++ (5%≤ ++ <25%)”, the “AX: anxiolytic (SmartCube probability)” value was “++ (5%≤ ++ <25%)” and the “CE: cognitive enhancer” value is recorded as “++ (5%≤ ++ <25%)”. In addition, the “DP: anti-depressant” value was “+ (LOQ≤ + <5%)”, the “MS: mood stabilizer” value is “+ (LOQ≤ + <5%)”, the “PS: anti-psychotic” value was “+ (LOQ≤ + <5%)” and the “SD: sedative hypnotic” value was “+ (LOQ≤ + <5%)”. Further, the “UN: uncharacterized CNS activity” value is “+++ (25%≤ +++ <50%)”. Under setting [1], the “POTENCY (minimal effective dose, MED)” value is reported as “D (>30 mpk)”.

In the case of `CNC[C@H]1OC[C@@H](C)c2ccccc21` [Example 19, N-methyl-1-((1S,4S)-4-methylisochroman-1-yl)methanamine], the “AD: ADHD (SmartCube probability)” value is “+ (LOQ≤ + <5%)”, the “AG: analgesic (SmartCube probability)” value is on record as “++ (5%≤ ++ <25%)”, the “AX: anxiolytic (SmartCube probability)” value is on record as “++ (5%≤ ++ <25%)” and the “CE: cognitive enhancer” value is listed as “++ (5%≤ ++ <25%)”. Moreover, the “DP: anti-depressant” value is “++ (5%≤ ++ <25%)”, the “MS: mood stabilizer” value is on record as “++ (5%≤ ++ <25%)”, the “PS: anti-psychotic” value was “++ (5%≤ ++ <25%)” and the “SD: sedative hypnotic” value is “+ (LOQ≤ + <5%)”. In addition, the “UN: uncharacterized CNS activity” value is “++ (5%≤ ++ <25%)”. In addition, the minimal effective dose under setting [1] fell in the range of 3 to 10 mg/kg.
